The results in this text go back to patent publication US12295939B2, “Substituted benzothiophene analogs as selective estrogen receptor degraders” (The Board of Trustees of the University of Illinois, priority 2018, dated 2025).

Test [1] concerns tamoxifen-resistant MCF-7:5C breast cancer cells. Kind of test: Growth inhibition in tamoxifen-resistant MCF-7:5C breast cancer cells. Particulars: MCF7:5C, MCF-7:5C cells; for IC50: assayed from 0.01 nM to 1 uM; for Emax: read-out: MCF7:5C Max efficacy (%). It counts as cell-based.
The subject of another test is ER (ERE). As to the kind of experiment: ER antagonism (ERE). It counts as cell-based. The method, then:
(§1) Example compounds were assayed to determine ER downregulation, relative binding affinity, and ER antagonism.

For test [2], the system named is tamoxifen-sensitive ER+ MCF-7:WS8 breast cancer cells. As to the kind of experiment: Growth inhibition in tamoxifen-sensitive ER+ MCF-7:WS8 breast cancer cells. Particulars: MCF7:WS8, MCF-7:WS8 cells; for IC50: assayed from 0.01 nM to 1 uM; for Emax: read-out: MCF7:WS8 Max efficacy (%). It counts as cell-based.
A further test addresses T1, ER (Homo sapiens, UniProt P03372).
T1 construct: endogenous in cells
T1 sequence (P03372 1-595): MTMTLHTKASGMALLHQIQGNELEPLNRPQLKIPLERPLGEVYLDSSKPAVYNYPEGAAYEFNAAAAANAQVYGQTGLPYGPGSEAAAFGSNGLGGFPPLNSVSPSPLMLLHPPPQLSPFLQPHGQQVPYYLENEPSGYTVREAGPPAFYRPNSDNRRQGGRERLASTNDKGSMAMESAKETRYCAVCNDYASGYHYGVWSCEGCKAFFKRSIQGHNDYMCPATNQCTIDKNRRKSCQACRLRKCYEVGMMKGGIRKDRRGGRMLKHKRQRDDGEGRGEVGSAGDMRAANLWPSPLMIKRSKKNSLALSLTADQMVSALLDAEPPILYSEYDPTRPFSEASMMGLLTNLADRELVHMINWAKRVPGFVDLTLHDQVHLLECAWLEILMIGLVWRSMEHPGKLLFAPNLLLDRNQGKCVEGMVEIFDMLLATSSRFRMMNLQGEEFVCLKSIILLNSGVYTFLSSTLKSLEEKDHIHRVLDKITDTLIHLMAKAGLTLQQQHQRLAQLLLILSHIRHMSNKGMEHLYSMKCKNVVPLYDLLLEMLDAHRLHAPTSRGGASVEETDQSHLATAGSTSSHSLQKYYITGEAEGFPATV
Kind of test: Relative binding affinity (RBA). The procedure:
as §1

Structures are written as SMILES.

A word on the IC50: it is the concentration that gives 50% inhibition. A lower IC50 goes with higher potency.

As for `O=C(c1ccc(O)cc1)c1sc2cc(O)ccc2c1Oc1ccc(OCCN2CC(CF)C2)cc1` [Compound 1, (3-(4-(2-(3-(fluoromethyl)azetidin-1-yl)ethoxy)phenoxy)-6-hydroxybenzo[b]thiophen-2-yl)(4-hydroxyphenyl) methanone], the IC50 in test [1] was 1.2 ± 0.3 nM; in the test on ER (ERE), 6.4 ± 0.4 nM; in test [2], 1.1 ± 0.1 nM. Besides, the Emax in test [1] is 30%; in test [2], 75%.
As for `Cc1cc(O)ccc1C(=O)c1sc2cc(O)ccc2c1Oc1ccc(OCCN2CC(CF)C2)cc1` [Compound 2, (3-(4-(2-(3-(fluoromethyl)azetidin-1-yl)ethoxy)phenoxy)-6-hydroxybenzo[b]thiophen-2-yl)(4-hydroxy-2-methylphenyl) methanone], in test [1], the half-maximal inhibitory concentration (IC50) stood at 7.9 ± 0.15 nM and the Emax turned out to be 45%. In addition, in test [2], the 50% inhibitory concentration (IC50) was 0.5 ± 0.05 nM and the Emax amounted to 80%.
Turning to `O=C(c1ccccc1)c1sc2cc(O)ccc2c1Oc1ccc(OCCN2CC(CF)C2)cc1` [Compound 3, (3-(4-(2-(3-(fluoromethyl)azetidin-1-yl)ethoxy)phenoxy)-6-hydroxybenzo[b]thiophen-2-yl)(phenyl)methanone], on ER, the “RBA (%)” value is 30.7 ± 7%. In addition, the concentration for half-maximal inhibition (IC50) in test [1] came out at 15 ± 4 nM; with ER (ERE) it was 4.3 ± 0.1 nM; in test [2], 0.55 ± 0.01 nM. Further, the Emax in test [1] came out at 60%; in test [2] it was 65%.
For `Cc1cc(F)ccc1C(=O)c1sc2cc(O)ccc2c1Oc1ccc(OCCN2CC(CF)C2)cc1` [Compound 4, (4-fluoro-2-methylphenyl)(3-(4-(2-(3-(fluoromethyl)azetidin-1-yl)ethoxy)phenoxy)-6-hydroxybenzo[b]thiophen-2-yl)methanone], the results for the IC50 (in test [1]; in the test with ER (ERE); in test [2]) were 0.2 ± 0.02 nM, 2.7 ± 0.09 nM and 0.3 ± 0.02 nM, respectively. Besides, the Emax in test [1] turned out to be 50%; in test [2], 75%.
With `Cc1cc(F)cc(C)c1C(=O)c1sc2cc(O)ccc2c1Oc1ccc(OCCN2CC(CF)C2)cc1` [Compound 5, (4-fluoro-2,6-dimethylphenyl)(3-(4-(2-(3-(fluoromethyl)azetidin-1-yl)ethoxy)phenoxy)-6-hydroxybenzo[b]thiophen-2-yl)methanone], the IC50 turned out to be 3.4 ± 0.5 nM in test [1], 3.5 ± 0.06 nM with ER (ERE) and 0.41 ± 0.01 nM in test [2]. Further, the Emax in test [1] amounted to 55%; in test [2], 70%.
On to `Cc1ccccc1C(=O)c1sc2cc(O)ccc2c1Oc1ccc(OCCN2CC(CF)C2)cc1` [Compound 8, (3-(4-(2-(3-(fluoromethyl)azetidin-1-yl)ethoxy)phenoxy)-6-hydroxybenzo[b]thiophen-2-yl)(o-tolyl)methanone], for which the “RBA (%)” value on ER is recorded as 46.5 ± 7%. Also, the figures for the IC50 (in test [1]; with ER (ERE); in test [2]) were 0.65 ± 0.03 nM, 1.5 ± 0.09 nM and 0.73 ± 0.02 nM, respectively. The results for the Emax in test [1] and in test [2] were 40% and 70%, respectively.
Consider `Cc1cccc(C)c1C(=O)c1sc2cc(O)ccc2c1Oc1ccc(OCCN2CC[C@@H](CF)C2)cc1` [Compound 9, (R)-(2,6-dimethylphenyl)(3-(4-(2-(3-(fluoromethyl)pyrrolidin-1-yl)ethoxy)phenoxy)-6-hydroxybenzo[b]thiophen-2-yl)methanone], for which the results for the IC50 (in test [1]; in the test with ER (ERE); in test [2]) were 0.23 ± 0.06 nM, 45 ± 15 nM and 0.1 ± 0.01 nM, respectively. Further, the Emax in test [1] turned out to be 25%; in test [2] it was 85%.
For `O=C(c1ccccc1)c1sc2cc(O)ccc2c1Oc1ccc(OC2CN(CCCF)C2)cc1` [Compound 15, (3-(4-((1-(3-fluoropropyl)azetidin-3-yl)oxy)phenoxy)-6-hydroxybenzo[b]thiophen-2-yl)(phenyl)methanone] the same measures were 0.12 ± 0.02 nM, 5.2 ± 0.06 nM, 0.15 ± 0.02 nM, 40% and 60%.
For the molecule `Cc1cc(F)ccc1C(=O)c1sc2cc(O)ccc2c1Oc1ccc(OC2CN(CCCF)C2)cc1` [Compound 16, (4-fluoro-2-methylphenyl)(3-(4-((1-(3-fluoropropyl)azetidin-3-yl)oxy)phenoxy)-6-hydroxybenzo[b]thiophen-2-yl)methanone], the “RBA (%)” value at ER came out at 38.1 ± 9%. Further, the half-inhibitory concentration (IC50) in test [1] is 0.95 ± 0.04 nM; with ER (ERE), 11 ± 0.5 nM; in test [2], 0.15 ± 0.02 nM. For the same molecule, the Emax is 50% in test [1] and 70% in test [2].
Turning to `Cc1cc(F)cc(C)c1C(=O)c1sc2cc(O)ccc2c1Oc1ccc(OC2CN(CCCF)C2)cc1` [Compound 17, (4-fluoro-2,6-dimethylphenyl)(3-(4-((1-(3-fluoropropyl)azetidin-3-yl)oxy)phenoxy)-6-hydroxybenzo[b]thiophen-2-yl)methanone], in test [1], half-maximal inhibition (IC50) required 0.15 ± 0.06 nM and the Emax was determined as 70%. Besides, in test [2], half-maximal inhibition (IC50) was put at 0.55 ± 0.01 nM and the Emax came out at 75%.
`Cc1cc(F)cc(C)c1C(=O)c1sc2cc(O)ccc2c1Oc1ccc(OCCN2CC[C@@H](CF)C2)cc1` [Compound 35, (R)-(4-fluoro-2,6-dimethylphenyl)(3-(4-(2-(3-(fluoromethyl)pyrrolidin-1-yl)ethoxy)phenoxy)-6-hydroxybenzo[b]thiophen-2-yl)methanone]: the IC50 in test [1] stood at 0.28 ± 0.07 nM; in the test on ER (ERE), 12 ± 2 nM; in test [2], 0.56 ± 0.01 nM. Besides, the Emax is 40% in test [1] and 65% in test [2].
In the case of `Cc1ccccc1C(=O)c1sc2cc(O)ccc2c1Oc1ccc(OCCN2CCC2)cc1` [Compound 59, (3-(4-(2-(azetidin-1-yl)ethoxy)phenoxy)-6-hydroxybenzo[b]thiophen-2-yl)(o-tolyl)methanone], in test [1], half-maximal inhibition (IC50) was put at 0.31 ± 0.07 nM and the Emax was 35%. In addition, in test [2], 0.5 ± 0.05 nM corresponded to half-maximal inhibition (IC50) and the Emax was 70%.
Regarding `Cc1ccccc1C(=O)c1sc2cc(O)ccc2c1Oc1ccc(OCCN2CC(C)C2)cc1` [Compound 60, (6-hydroxy-3-(4-(2-(3-methylazetidin-1-yl)ethoxy)phenoxy)benzo[b]thiophen-2-yl)(o-tolyl)methanone], the figures for the IC50 (in test [1]; in the test with ER (ERE); in test [2]) were 0.65 ± 0.01 nM, 1.9 ± 0.06 nM and 0.02 ± 0.004 nM, respectively. In addition, the values for the Emax in test [1] and in test [2] were 55% and 75%, respectively.
With `O=C(c1cccc(F)c1)c1sc2cc(O)ccc2c1Oc1ccc(OCCN2CC(CF)C2)cc1` [Compound 62, (3-(4-(2-(3-(fluoromethyl)azetidin-1-yl)ethoxy)phenoxy)-6-hydroxybenzo[b]thiophen-2-yl)(3-fluorophenyl) methanone], the “RBA (%)” value on ER was 120 ± 13%. The IC50 in test [1] amounted to 1.4 ± 0.2 nM; in test [2], 0.28 ± 0.03 nM. Besides, the Emax in test [1] turned out to be 60%; in test [2], 75%.
As to `Cc1ccc(C(=O)c2sc3cc(O)ccc3c2Oc2ccc(OCCN3CC(CF)C3)cc2)c(C)c1` [Compound 63, (2,4-dimethylphenyl)(3-(4-(2-(3-(fluoromethyl)azetidin-1-yl)ethoxy)phenoxy)-6-hydroxybenzo[b]thiophen-2-yl)methanone], the IC50 in test [1] was determined as 0.56 ± 0.005 nM; in the test on ER (ERE) it was 7.4 ± 0.3 nM; in test [2], 0.47 ± 0.009 nM. Besides, the Emax in test [1] is 50%; in test [2] it was 65%.
With `Cc1cc(F)cc(C)c1C(=O)c1sc2cc(O)ccc2c1Oc1ccc(OCCN2CC[C@H](CF)C2)cc1` [Compound 64, (S)-(4-fluoro-2,6-dimethylphenyl)(3-(4-(2-(3-(fluoromethyl)pyrrolidin-1-yl)ethoxy)phenoxy)-6-hydroxybenzo[b]thiophen-2-yl)methanone], the IC50 turned out to be 0.16 ± 0.1 nM in test [1], 0.05 ± 0.001 nM in the test on ER (ERE) and 0.36 ± 0.001 nM in test [2]. In addition, the Emax in test [1] is 50%; in test [2] it was 70%.
Regarding `O=C(c1cccc(F)c1)c1sc2cc(O)ccc2c1Oc1ccc(OC2CN(CCCF)C2)cc1` [Compound 66, (3-fluorophenyl)(3-(4-((1-(3-fluoropropyl)azetidin-3-yl)oxy)phenoxy)-6-hydroxybenzo[b]thiophen-2-yl)methanone], in test [1], the IC50 was 0.12 ± 0.03 nM and the Emax amounted to 35%. Besides, in test [2], half-maximal inhibition (IC50) was put at 0.27 ± 0.006 nM and the Emax was found to be 70%.
Taken in the same sequence, the figures for `Cc1cc(F)cc(C)c1C(=O)c1sc2cc(O)ccc2c1Oc1ccc(OC2CN(C3CC3)C2)cc1` [Compound 67, (3-(4-((1-cyclopropylazetidin-3-yl)oxy)phenoxy)-6-hydroxybenzo[b]thiophen-2-yl)(4-fluoro-2,6-dimethylphenyl) methanone] were 1 ± 0.8 nM, 20%, 0.42 ± 0.04 nM and 65%.
On to `C[C@]12CC[C@@H]3c4ccc(O)cc4C[C@@H](CCCCCCCCC[S+]([O-])CCCC(F)(F)C(F)(F)F)[C@H]3[C@@H]1CC[C@@H]2O` (stereo partly drawn) [Fulvestrant, fulvestrant, reference compound], for which the IC50 was found to be 1.9 ± 0.01 nM in test [1], […] with ER (ERE) and 0.48 ± 0.03 nM in test [2]. Further, the Emax in test [1] was found to be 55%; in test [2], 75%.
